The subject of one test is MKN-45 cells. The test can be described thus: MKN-45 cell proliferation assay (resazurin). The settings on record: Homo sapiens, 67 h + 5 h resazurin. It is filed as cell-based. As for the experimental part:
MKN-45 cells (catalog #JCRB0254) were obtained from the Japan Health Science Research Resources Bank, Osaka, Japan. Briefly, cells were grown in RPMI 1640 media supplemented with 10% characterized fetal bovine serum (Invitrogen, Carlsbad, Calif.) at 37° C., 5% CO2, 95% humidity. Cells were allowed to expand until reaching 70-95% confluency at which point they were subcultured or harvested for assay use.
(§1) A serial dilution of test compound was dispensed into a 96-well black clear bottom plate (Corning, Corning, N.Y.). Five thousand cells were added per well in 200 μL complete growth medium. Plates were incubated for 67 hours at 37° C., 5% CO2, 95% humidity. At the end of the incubation period 40 μL of a 440 μM solution of resazurin (Sigma, St. Louis, Mo.) in PBS was added to each well and plates were incubated for an additional 5 h at 37° C., 5% CO2, 95% humidity. Plates were read on a Synergy2 reader (Biotek, Winooski, Vt.) using an excitation of 540 nm and an emission of 600 nm. Data was analyzed using Prism software (GraphPad, San Diego, Calif.) to calculate IC50 values.

The target of test [1] is T1, c-MET kinase (Seq. ID No. 2) (Homo sapiens, UniProt P08581).
T1 construct: c-MET (c-MET residues: 956-1390, from Invitrogen, catalogue #PV3143, 6 nM); purchased Invitrogen PV3143
T1 sequence (P08581 with tags, fused parts or gaps): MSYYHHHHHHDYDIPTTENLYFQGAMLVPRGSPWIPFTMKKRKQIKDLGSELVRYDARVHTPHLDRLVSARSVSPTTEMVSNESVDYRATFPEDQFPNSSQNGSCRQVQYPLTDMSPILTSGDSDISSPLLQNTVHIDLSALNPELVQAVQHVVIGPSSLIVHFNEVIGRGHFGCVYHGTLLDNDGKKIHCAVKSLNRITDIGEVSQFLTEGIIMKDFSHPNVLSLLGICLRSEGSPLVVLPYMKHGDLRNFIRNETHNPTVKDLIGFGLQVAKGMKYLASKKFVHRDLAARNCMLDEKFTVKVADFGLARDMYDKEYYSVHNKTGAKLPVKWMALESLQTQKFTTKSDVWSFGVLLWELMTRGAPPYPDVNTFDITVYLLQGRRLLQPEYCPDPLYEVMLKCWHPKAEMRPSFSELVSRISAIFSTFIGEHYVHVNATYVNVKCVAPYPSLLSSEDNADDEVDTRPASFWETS
Put plainly: c-MET kinase assay (pyruvate kinase/lactate dehydrogenase coupled, A340). It is filed as biochemical. Conditions: enzymatic assay, 0.5 h pre-incubation, ATP 100 μM; read-out: cMET. As for the experimental part: Activity of c-MET kinase (Seq. ID No. 2) was determined by following the production of ADP from the kinase reaction through coupling with the pyruvate kinase/lactate dehydrogenase system (e.g., Schindler et al. Science 2000, 289, pp. 1938-1942). In this assay, the oxidation of NADH (thus the decrease at A340 nm) was continuously monitored spectrophotometrically. The reaction mixture (100 μl) contained c-MET (c-MET residues: 956-1390, from Invitrogen, catalogue #PV3143, 6 nM), polyE4Y (1 mg/mL), MgCl2 (10 mM), pyruvate kinase (4 units), lactate dehydrogenase (0.7 units), phosphoenol pyruvate (1 mM), and NADH (0.28 mM) in 90 mM Tris buffer containing 0.25 mM DTT, 0.2% octyl-glucoside and 1% DMSO, pH 7.5. Test compounds were incubated with c-MET (Seq. ID No. 2) and other reaction reagents at 22° C. for 0.5 h before ATP (100 μM) was added to start the reaction. The absorption at 340 nm was monitored continuously for 2 hours at 30° C. on Polarstar Optima plate reader (BMG). The reaction rate was calculated using the 1.0 to 2.0 h time frame. Percent inhibition was obtained by comparison of reaction rate with that of a control (i.e., with no test compound). IC50 values were calculated from a series of percent inhibition values determined at a range of inhibitor concentrations using software routines as implemented in the GraphPad Prism software package.

Test [2] addresses T2, c-KIT kinase (Seq. ID No. 1) (Homo sapiens, UniProt P10721).
T2 construct: c-KIT (cKIT residues T544-V976, from ProQinase, 5.4 nM); purchased ProQinase
The test can be described thus: c-KIT kinase assay (pyruvate kinase/lactate dehydrogenase coupled, A340). Conditions: enzymatic assay, ATP 200 μM; read-out: cKIT. The class given is biochemical. As for the experimental part:
Activity of c-KIT kinase (Seq. ID No. 1) was determined by following the production of ADP from the kinase reaction through coupling with the pyruvate kinase/lactate dehydrogenase system (e.g., Schindler et al. Science 2000, 289, pp. 1938-1942). In this assay, the oxidation of NADH (thus the decrease at A340 nm) was continuously monitored spectrophotometrically. The reaction mixture (100 μl) contained c-KIT (cKIT residues T544-V976, from ProQinase, 5.4 nM), polyE4Y (1 mg/mL), MgCl2 (10 mM), pyruvate kinase (4 units), lactate dehydrogenase (0.7 units), phosphoenol pyruvate (1 mM), and NADH (0.28 mM) in 90 mM Tris buffer containing 0.2% octyl-glucoside and 1% DMSO, pH 7.5. Test compounds were incubated with c-KIT (Seq. ID No. 1) and other reaction reagents at 22° C. for less than 2 min before ATP (200 μM) was added to start the reaction. The absorption at 340 nm was monitored continuously for 0.5 hours at 30° C. on Polarstar Optima plate reader (BMG). The reaction rate was calculated using the 0 to 0.5 h time frame. Percent inhibition was obtained by comparison of reaction rate with that of a control (i.e., with no test compound). IC50 values were calculated from a series of percent inhibition values determined at a range of inhibitor concentrations using software routines as implemented in the GraphPad Prism software package.

For test [3], the target named is KDR kinase (Seq ID No. 3) (Homo sapiens, UniProt P35968, DEL940-989/E990V). Put plainly: KDR kinase assay (assays K1, K2, K3). It is filed as biochemical. The settings on record: enzymatic assay; variant K1, K2 or K3 not given. The procedure:
The activity of KDR kinase was determined by following the production of ADP from the kinase reaction through coupling with the pyruvate kinase/lactate dehydrogenase system (e.g., Schindler et al. Science 2000, 289, pp. 1938-1942). In this assay, the oxidation of NADH (thus the decrease at A340 nm) was continuously monitored spectrophotometrically. The reaction mixture (100 μl) contained KDR (Seq ID No. 3, 1.5 nM to 7.1 nM, nominal concentration), polyE4Y (1 mg/mL), pyruvate kinase (3.5 units), lactate dehydrogenase (5.5 units), phosphoenolpyruvate (1 mM), and NADH (0.28 mM) in 60 mM Tris buffer containing 0.13% octyl-glucoside, 13 mM MgCl2, 6.8 mM DTT, test compound, and 3.5% DMSO at pH 7.5. The reaction was initiated by adding ATP (0.2 mM, final concentration). The absorption at 340 nm was continuously monitored for 3 h at 30° C. on a Polarstar Optima plate reader (BMG) or instrument of similar capacity. The reaction rate was calculated using the 1 h to 2 h time frame. Percent inhibition was obtained by comparison of reaction rate with that of a control (i.e., with no test compound). IC50 values were calculated from a series of percent inhibition values determined at a range of inhibitor concentrations using software routines as implemented in the GraphPad Prism software package.
KDR kinase assay K2 is the same as for assay K1 except that (1) a nominal concentration of 2.1 nM of enzyme was employed (2) the reaction was pre-incubated with test compound at 30° C. for 2 h prior to initiation with ATP and (3) 1.0 mM ATP (final concentration) was used to initiate the reaction.
KDR kinase assay K3 is the same as for assay K1 except that (1) a nominal concentration of 1.1 nM of enzyme was employed, (2) the buffer components per 100 μl reaction mixture were as follows: 75 mM Tris buffer containing 0.066% octyl-glucoside, 17 mM MgCl2, and 1% DMSO at pH 7.5, (3) the final concentration of DTT was 0.66 mM, (4) the reaction was pre-incubated with test compound at 30° C. for 1 h prior to initiation with ATP, and (5) 1.0 mM ATP (final concentration) was used to initiate the reaction.

Another test relates to EBC-1 cells. The test can be described thus: EBC-1 cell proliferation assay (resazurin). The settings on record: Homo sapiens, 67 h + 5 h resazurin, read-out: EBC1 Proliferation. The class given is cell-based. The procedure:
EBC-1 cells (catalog #JCRB0820) were obtained from the Japan Health Science Research Resources Bank, Osaka, Japan. Briefly, cells were grown in DMEM supplemented with 10% characterized fetal bovine serum (Invitrogen, Carlsbad, Calif.) at 37° C., 5% CO2, 95% humidity. Cells were allowed to expand until reaching 70-95% confluency at which point they were subcultured or harvested for assay use.
as §1, with “N.Y.). For each cell line, five” for “N.Y.). Five”, “and” for “and plates were”, “5 hours” for “5 h”
(The colour change of resazurin is a common sign of viable cells or microbes.)

Molecules are shown by their SMILES. Structures can show the parent of a compound that is named as a salt. Where only a bound is given, the exact number is not on record here.

Sequence of KDR kinase (Seq ID No. 3) (P35968 with tags, fused parts or gaps DEL940-989/E990V): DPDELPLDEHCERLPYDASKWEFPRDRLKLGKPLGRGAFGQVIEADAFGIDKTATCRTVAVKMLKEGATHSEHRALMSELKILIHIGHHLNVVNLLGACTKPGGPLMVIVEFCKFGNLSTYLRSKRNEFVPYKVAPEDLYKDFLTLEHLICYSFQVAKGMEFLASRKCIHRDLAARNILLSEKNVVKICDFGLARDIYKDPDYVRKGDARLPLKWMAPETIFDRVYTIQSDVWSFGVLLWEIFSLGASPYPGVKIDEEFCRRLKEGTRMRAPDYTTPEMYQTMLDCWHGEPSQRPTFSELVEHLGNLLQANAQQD
T2 sequence (P10721 with tags, fused parts or gaps): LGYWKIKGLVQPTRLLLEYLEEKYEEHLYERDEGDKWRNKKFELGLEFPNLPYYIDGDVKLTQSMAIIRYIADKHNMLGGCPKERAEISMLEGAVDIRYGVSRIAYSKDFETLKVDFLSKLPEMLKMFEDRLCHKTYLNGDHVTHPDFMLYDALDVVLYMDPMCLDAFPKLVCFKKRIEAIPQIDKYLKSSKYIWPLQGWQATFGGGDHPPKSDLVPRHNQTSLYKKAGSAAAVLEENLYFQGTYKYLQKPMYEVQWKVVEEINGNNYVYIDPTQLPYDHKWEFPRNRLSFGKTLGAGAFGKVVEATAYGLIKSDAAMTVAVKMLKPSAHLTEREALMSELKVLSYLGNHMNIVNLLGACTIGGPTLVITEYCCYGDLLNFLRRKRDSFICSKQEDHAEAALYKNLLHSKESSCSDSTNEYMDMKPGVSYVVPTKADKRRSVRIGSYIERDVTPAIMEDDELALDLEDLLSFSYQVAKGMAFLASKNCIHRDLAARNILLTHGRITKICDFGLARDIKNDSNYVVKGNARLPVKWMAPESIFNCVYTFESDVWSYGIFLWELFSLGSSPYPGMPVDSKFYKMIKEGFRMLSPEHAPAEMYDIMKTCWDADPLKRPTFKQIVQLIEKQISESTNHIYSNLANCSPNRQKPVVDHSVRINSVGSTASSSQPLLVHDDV

On to `CNc1ccn(-c2ccc(F)cc2)c(=O)c1C(=O)Nc1cc(F)c(Oc2ccnc(-c3cnn(C)c3)c2)cc1F` [Example 4, N-(2,5-difluoro-4-((2-(1-methyl-1H-pyrazol-4-yl)pyridin-4-yl)oxy)phenyl)-1-(4-fluorophenyl)-4-(methylamino)-2-oxo-1,2-dihydropyridine-3-carboxamide], for which the IC50 is > 1000 nM in the test with MKN-45 cells; ≤ 100 nM in test [1]; 100 to 1000 nM in test [2]; > 1000 nM in test [3]; 100 to 1000 nM in the test on EBC-1 cells.
In the case of `CCOc1ccn(-c2ccc(F)cc2)c(=O)c1C(=O)Nc1cc(F)c(Oc2ccnc(-c3cnn(C(C)C)c3)c2)cc1F` [Example 6, N-(2,5-difluoro-4-((2-(1-isopropyl-1H-pyrazol-4-yl)pyridin-4-yl)oxy)phenyl)-4-ethoxy-1-(4-fluorophenyl)-2-oxo-1,2-dihydropyridine-3-carboxamide], the IC50 was 100 to 1000 nM in the test with MKN-45 cells; ≤ 100 nM in test [1]; > 1000 nM in test [2]; > 1000 nM in test [3]; 100 to 1000 nM with EBC-1 cells.
For `CCOc1ccn(-c2ccc(F)cc2)c(=O)c1C(=O)Nc1cc(F)c(Oc2ccnc(-c3cnn(CC)c3)c2)cc1F` [Example 7, 4-ethoxy-N-(4-((2-(1-ethyl-1H-pyrazol-4-yl)pyridin-4-yl)oxy)-2,5-difluorophenyl)-1-(4-fluorophenyl)-2-oxo-1,2-dihydropyridine-3-carboxamide], the IC50 is ≤ 100 nM with MKN-45 cells; ≤ 100 nM in test [1]; > 1000 nM in test [2]; > 1000 nM in test [3]; ≤ 100 nM in the test on EBC-1 cells.
Regarding `CCOc1ccn(-c2ccc(F)cc2)c(=O)c1C(=O)Nc1cc(F)c(Oc2ccnc(-c3cn[nH]c3)c2)cc1F` [Example 8, N-(4-((2-(1H-pyrazol-4-yl)pyridin-4-yl)oxy)-2,5-difluorophenyl)-4-ethoxy-1-(4-fluorophenyl)-2-oxo-1,2-dihydropyridine-3-carboxamide hydrochloride], the IC50 with MKN-45 cells was 100 to 1000 nM; in test [1] it was ≤ 100 nM; in test [2], > 1000 nM; in test [3] it was > 1000 nM; in the test with EBC-1 cells, 100 to 1000 nM.
On to `Cn1cc(C(=O)Nc2cc(F)c(Oc3ccnc(-c4cnn(C)c4)c3)cc2F)c(=O)c(-c2ccc(F)cc2)c1` [Example 9, N-(2,5-difluoro-4-((2-(1-methyl-1H-pyrazol-4-yl)pyridin-4-yl)oxy)phenyl)-5-(4-fluorophenyl)-1-methyl-4-oxo-1,4-dihydropyridine-3-carboxamide], for which the values for the IC50 in test [1], in test [2] and in test [3] were ≤ 100 nM, ≤ 100 nM and > 1000 nM, respectively.
Turning to `Cn1cc(-c2cc(Oc3cc(F)c(NC(=O)c4c[nH]cc(-c5ccc(F)cc5)c4=O)cc3F)ccn2)cn1` [Example 10, N-(2,5-difluoro-4-((2-(1-methyl-1H-pyrazol-4-yl)pyridin-4-yl)oxy)phenyl)-5-(4-fluorophenyl)-4-oxo-1,4-dihydropyridine-3-carboxamide], the IC50 is ≤ 100 nM in test [1], ≤ 100 nM in test [2] and 100 to 1000 nM in test [3].
